Assay results from patent publication US10894076B2 (PEGBIO CO., LTD., priority 2015, dated 2021).

How the values were obtained:
DIO mice [1] = assay: Long-term administration of PB-716 series conjugates, weight loss in DIO mice (Example 16); assay type: in vivo, C57BL/6 mice
Protocol: […] The continuous administration experiments was conducted for a total of 14 days. During the experimental period, the body weight and food intake of the mice were measured every day. Random blood sugar level was measured before the start of the experiment and after the complement of the experiment.

DIO mice [2] = assay: Long-term administration of PB-718, PB-119 and PB-708+PB-120, weight loss in DIO mice (Example 17); assay type: in vivo, C57BL/6 mice; details: 14 days
Protocol: The Victoza group was dosed once a day and the remaining groups were dosed once every 2 days. The continuous administration experiment was conducted for a total of 14 days. During the experimental period, the body weight and food intake of the mice were measured every day. Random blood sugar level was measured before the start of the experiment and after the complement of the experiment.

[3] = tested on: nonalcoholic steatohepatitis (NASH) model mice; assay: Combination of PB-119 and PB-722 in nonalcoholic steatohepatitis (NASH) mouse model (Example 21); assay type: in vivo, C57/BL6J mice; details: 10 mg/kg orally once a day, 21 days
Excerpt: 30 C57/BL6J mice (purchased from Lingchang Biotechnology Co. Ltd., Shanghai, China) were used in this experiment. Twenty four of them were intraperitoneally injected with streptozotocin (STZ) one week after they were born and fed with high-fat diet (purchased from Research Diets, Inc) for five weeks to successfully create a nonalcoholic steatohepatitis (NASH) model. The other 6 were used as normal control and fed with normal diet. The administration started at the sixth week. […] The positive control group was orally administered once a day and the other groups were administered subcutaneously once every two days for 21 consecutive days. During the administration period, body weight was measured every day and the food intake was measured every two days. After the last day of administration, the animals were fasted overnight, and then weighed and euthanized. Serum and liver tissues were taken and the liver weights were measured. Serum glucose and insulin levels were detected. Liver tissue was fixed with formaldehyde solution, and tissue sections were made and stained with HE, oil red and Sirius red. The sections were examined and scored to determine the NASH index.

DIO mice [4] = assay: Long-term administration of PB-119 with PB-721 or PB-722, weight loss and lipids in DIO mice (Example 18); assay type: in vivo, C57BL/6 mice; details: for decrease of liver triglyceride content compared with model control group / decrease of serum total cholesterol content / serum triglyceride level: Day21; for decrease of cumulative food intake compared with model control group / body weight decrease compared with that before the administration: 21 days
Protocol: Each group was administered subcutaneously, once every two days, and the experiment lasted for 21 days with 11 administrations. During the experimental period, the body weight and food intake of the mice were measured every day. The blood sugar level was measured at Day1 and Day21, and the serum triglyceride serum, total cholesterol, liver triglyceride and other indexes were measured at Day21.

DIO mice [5] = assay: Combination of PB-119 and PB-722, weight loss in DIO mice, 21 days (Example 20); assay type: in vivo, C57BL/6 mice; details: 10 nmol/kg once every two days
Protocol: Male C57BL/6 mice (from the same source as described above) were fed with high-fat diet (45% kcal) for 22 weeks. […] 36 DIO mice were divided into 6 groups based on their body weight and random blood sugar level, with 6 mice per group. […] Except that administration was carried out twice a day in group 6, administration was carried out once every two days in other groups. The experiment was conducted for a total of 21 days for a continuous administration. The body weight and food intake of the mice were measured on the day of the administration, and random blood sugar level and fasting blood sugar level were measured on the second day after the last administration.
After 21 days of administration, an oral glucose tolerance experiment was performed. Mice were orally given 2.5 g/kg glucose solution, and random glucose level was measured at 0 min, 15 min, 30 min, 60 min and 120 min after sugar feeding.

CCCCCCCCCCCCCCCC(=O)N[C@@H](CCC(=O)NCCCC[C@H](NC(=O)[C@H](C)NC(=O)[C@H](C)NC(=O)[C@H](CCC(N)=O)NC(=O)CNC(=O)[C@H](CCC(=O)O)NC(=O)[C@H](CC(C)C)NC(=O)[C@H](Cc1ccc(O)cc1)NC(=O)[C@H](CO)NC(=O)[C@H](CO)NC(=O)[C@@H](NC(=O)[C@H](CC(=O)O)NC(=O)[C@H](CO)NC(=O)[C@@H](NC(=O)[C@H](Cc1ccccc1)NC(=O)[C@@H](NC(=O)CNC(=O)[C@H](CCC(=O)O)NC(=O)[C@H](C)NC(=O)[C@@H](N)Cc1cnc[nH]1)[C@@H](C)O)[C@@H](C)O)C(C)C)C(=O)N[C@@H](CCC(=O)O)C(=O)N[C@@H](Cc1ccccc1)C(=O)N[C@H](C(=O)N[C@@H](C)C(=O)N[C@@H](Cc1c[nH]c2ccccc12)C(=O)N[C@@H](CC(C)C)C(=O)N[C@H](C(=O)N[C@@H](CCCNC(=N)N)C(=O)NCC(=O)N[C@@H](CCCNC(=N)N)C(=O)NCC(=O)O)C(C)C)[C@@H](C)CC)C(=O)O [Victoza, reference compound]
body weight decrease compared with that before the administration (DIO mice [1]; 200 μg/kg once a day, 14 days): 15.83% | decrease of cumulative food intake relative to model control group (DIO mice [1]; 200 μg/kg once a day, end of 14-day continuous administration): 50.82% | body weight compared with control group by 96 hours after first administration (DIO mice [1]; Victoza 200 μg/kg, single administration): no significant difference | body weight decrease compared with that before the administration (DIO mice [2]; 200 μg/kg once a day): 15.92%

CCCc1nc2c(C)cc(-c3nc4ccccc4n3C)cc2n1Cc1ccc(-c2ccccc2C(=O)O)cc1 [telmisartan]
blood sugar level [3]: no effect

mPEG-23 KD-ppMAL--PB-740 (HSQGTFTSDYSKYLDSRRAQDFVQWLMNTC; mPEG-23KD-ppMAL conjugate) [PB-721]
decrease of liver triglyceride content compared with model control group (DIO mice [4]; 60 nmol/kg alone): 73.29% | decrease of serum total cholesterol content (DIO mice [4]; 60 nmol/kg alone): 60.86% | serum triglyceride level (DIO mice [4]; 60 nmol/kg alone): did not significantly improve | decrease of cumulative food intake compared with model control group (DIO mice [4]; 60 nmol/kg alone, s.c. once every two days): 2.36% | body weight decrease compared with that before the administration (DIO mice [4]; alone, 60 nmol/L as printed, s.c. once every two days): 21.65%

mPEG-23 KD-ppMAL-PB-105 [PB-119]
body weight decrease compared with that before the administration (DIO mice [5]): 16.6% | decrease in cumulative food intake compared with control group (DIO mice [5]): 14.4% | fasting blood sugar level decrease compared with that before administration (DIO mice [5]): 17.9% | body weight decrease compared with that before the administration (DIO mice [2]; 210 μg/kg once every 2 days): 13.33% | decrease of cumulative food intake compared with control group (DIO mice [2]; 210 μg/kg once every 2 days): 39.95% | decrease of random blood sugar level (DIO mice [2]; 210 μg/kg once every 2 days): 27.27% | decrease of liver triglyceride content compared with model control group (DIO mice [4]; 10 nmol/kg alone): 12.67% | decrease of serum total cholesterol content (DIO mice [4]; 10 nmol/kg alone): 39.35% | serum triglyceride level (DIO mice [4]; 10 nmol/kg alone): did not significantly improve | decrease of cumulative food intake compared with model control group (DIO mice [4]; 10 nmol/kg alone, s.c. once every two days): 25.14% | body weight decrease compared with that before the administration (DIO mice [4]; 10 nmol/kg s.c. once every two days): 14.37%
